Key:
[1] = molecular target: T1, Integrin alpha-IIb/beta-3 (Homo sapiens, UniProt P05106+P08514); assay: Inhibition of fibrinogen binding to immobilized human glycoprotein alpha IIb beta-3 integrin; type: protein-complex assay
Homo sapiens = species on record: Homo sapiens; assay: Tested in vitro for the inhibition of ADP-induced aggregation of human blood platelets; type: functional
Cavia porcellus [2] = assay: Ex vivo platelet aggregation of compound was measured in guinea pig up to 5 hr after intraduodenal dose of 0.3 mg/kg; type: functional
Cavia porcellus [3] = assay: Ex vivo platelet aggregation of compound was measured in guinea pig up to 5 hr after intraduodenal dose of 1 mg/kg; type: functional
Cavia porcellus [4] = assay: Ex vivo platelet aggregation of compound was measured in guinea pig up to 5 hr after intraduodenal dose of 3 mg/kg; type: functional
Cavia porcellus [5] = assay: Ex vivo platelet aggregation of compound was measured in guinea pig up to 5 hr after intraduodenal dose of 10 mg/kg; type: functional
[6] = molecular target: T1, Integrin alpha-IIb/beta-3; assay: Inhibition of fibrinogen binding to GPllb/IIIa receptor; type: protein-complex assay

T1 sequence (P05106 27-788 limits assumed): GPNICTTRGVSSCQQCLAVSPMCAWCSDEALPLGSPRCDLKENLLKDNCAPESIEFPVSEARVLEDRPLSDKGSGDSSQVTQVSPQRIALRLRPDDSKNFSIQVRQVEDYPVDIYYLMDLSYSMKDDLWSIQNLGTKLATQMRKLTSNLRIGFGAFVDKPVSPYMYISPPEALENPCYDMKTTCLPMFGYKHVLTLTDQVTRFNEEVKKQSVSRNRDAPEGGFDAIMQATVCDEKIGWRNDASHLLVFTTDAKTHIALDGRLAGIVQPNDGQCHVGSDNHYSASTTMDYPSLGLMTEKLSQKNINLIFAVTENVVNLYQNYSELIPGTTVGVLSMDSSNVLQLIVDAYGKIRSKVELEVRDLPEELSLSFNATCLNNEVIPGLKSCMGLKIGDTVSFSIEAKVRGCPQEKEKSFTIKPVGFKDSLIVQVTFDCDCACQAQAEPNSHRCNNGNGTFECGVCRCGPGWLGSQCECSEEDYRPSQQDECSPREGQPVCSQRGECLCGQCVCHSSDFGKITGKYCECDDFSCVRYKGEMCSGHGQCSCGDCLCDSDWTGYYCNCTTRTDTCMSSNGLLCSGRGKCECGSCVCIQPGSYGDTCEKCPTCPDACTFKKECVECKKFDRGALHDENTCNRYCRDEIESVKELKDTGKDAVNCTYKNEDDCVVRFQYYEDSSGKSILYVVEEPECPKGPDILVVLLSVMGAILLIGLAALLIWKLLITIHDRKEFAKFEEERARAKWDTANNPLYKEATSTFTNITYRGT
T1 sequence (P08514 32-887 limits assumed): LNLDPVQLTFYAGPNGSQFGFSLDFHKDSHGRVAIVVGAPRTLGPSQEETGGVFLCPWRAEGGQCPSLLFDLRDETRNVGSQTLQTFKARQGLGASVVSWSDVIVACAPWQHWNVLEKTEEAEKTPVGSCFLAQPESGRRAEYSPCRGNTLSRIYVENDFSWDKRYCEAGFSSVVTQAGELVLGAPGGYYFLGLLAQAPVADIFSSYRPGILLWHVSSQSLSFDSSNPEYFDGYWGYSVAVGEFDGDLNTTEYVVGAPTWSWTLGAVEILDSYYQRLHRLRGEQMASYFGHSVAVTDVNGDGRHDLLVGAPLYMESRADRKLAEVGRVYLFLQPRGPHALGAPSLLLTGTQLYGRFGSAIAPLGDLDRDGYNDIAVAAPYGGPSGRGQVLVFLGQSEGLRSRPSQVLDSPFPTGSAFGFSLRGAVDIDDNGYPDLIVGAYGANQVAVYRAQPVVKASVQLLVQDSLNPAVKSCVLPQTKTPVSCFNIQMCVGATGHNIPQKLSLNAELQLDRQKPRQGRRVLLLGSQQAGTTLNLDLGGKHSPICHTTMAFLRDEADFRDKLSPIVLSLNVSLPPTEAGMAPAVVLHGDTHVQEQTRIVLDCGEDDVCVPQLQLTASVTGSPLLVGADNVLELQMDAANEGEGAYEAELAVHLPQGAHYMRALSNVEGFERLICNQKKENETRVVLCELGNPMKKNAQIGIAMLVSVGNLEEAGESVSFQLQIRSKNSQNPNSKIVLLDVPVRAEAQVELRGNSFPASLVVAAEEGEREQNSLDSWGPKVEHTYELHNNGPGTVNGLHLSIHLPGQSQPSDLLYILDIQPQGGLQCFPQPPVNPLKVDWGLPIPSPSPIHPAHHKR
T1 sequence (P08514 891-1039 limits assumed): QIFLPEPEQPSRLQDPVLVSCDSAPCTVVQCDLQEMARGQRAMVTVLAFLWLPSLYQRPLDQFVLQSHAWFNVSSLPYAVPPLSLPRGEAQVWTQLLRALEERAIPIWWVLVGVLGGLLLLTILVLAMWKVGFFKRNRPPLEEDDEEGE

Compound	IC50 [1] [nM]	IC50 (Homo sapiens) [nM]	IC50 [6] [nM]	inhibition in vivo at 0.3 mg/kg (Cavia porcellus [2]) [%]	inhibition in vivo at 1 mg/kg (Cavia porcellus [3]) [%]	inhibition in vivo at 3 mg/kg (Cavia porcellus [4]) [%]	inhibition in vivo at 10 mg/kg (Cavia porcellus [5]) [%]
COc1ccc(CCS(=O)(=O)N[C@H](CCCCNC(=O)c2ccc(C(=N)N)cc2)CC(=O)O)cc1	1	79					
COc1ccc(CCC(=O)N[C@H](CCCCNC(=O)c2ccc(C(=N)N)cc2)CC(=O)O)cc1	0.36	18		45	90		
Cc1ccc(S(=O)(=O)N[C@@H](CCCNC(=O)Cc2ccc(C(=N)N)cc2)CC(=O)O)cc1		640					10
N=C(N)c1ccc(C(=O)NCCCC[C@H](CC(=O)O)NC(=O)Cc2cccc3ccccc23)cc1	0.36	18			40		
Cc1ccc(S(=O)(=O)N[C@@H](CCCNC(=O)OCc2ccccc2)C(=O)O)cc1 [ORNITHINE SULFONAMIDE]			20000				
Cc1ccc(S(=O)(=O)N[C@@H](CCCNC(=O)Cc2ccc(C(=N)N)cc2)C(=O)O)cc1	48000	31000					

More lines, main results first:

IC50 [1] [nM]	IC50 (Homo sapiens) [nM]	IC50 [6] [nM]	Compound	inhibition in vivo at 0.3 mg/kg (Cavia porcellus [2]) [%]	inhibition in vivo at 1 mg/kg (Cavia porcellus [3]) [%]	inhibition in vivo at 3 mg/kg (Cavia porcellus [4]) [%]	inhibition in vivo at 10 mg/kg (Cavia porcellus [5]) [%]
	100		CC(C)CC(=O)N[C@@H](CCCNC(=O)Cc1ccc(C(=N)N)cc1)CC(=O)O		25	75	
0.37	61		N=C(N)c1ccc(CC(=O)NCCC[C@@H](CC(=O)O)NC(=O)CCC23C[C@H]4C[C@@H](C2)C[C@@H](C3)C4)cc1			10	
0.54	15		CC(C)CC(=O)N[C@H](CCCCNC(=O)c1ccc(C(=N)N)cc1)CC(=O)O		65	75	
2.2	67		N=C(N)c1ccc(CC(=O)NCCC[C@@H](CC(=O)O)NC(=O)CC23C[C@H]4C[C@@H](C2)C[C@@H](C3)C4)cc1				
7.9	950		CC(C)CNC(=O)[C@@H](CCCNC(=O)Cc1ccc(C(=N)N)cc1)CC(=O)O				
1.1	31		COc1ccc(CCC(=O)N[C@@H](CCCNC(=O)Cc2ccc(C(=N)N)cc2)CC(=O)O)cc1		10	10	
